# Values quoted from earlier work, collected in patent US20080153832A1, “PAN-ALPHA-2 RECEPTOR AGONIST AND RELAXANT COMPOSITIONS FOR TREATING GASTROINTESTINAL MOTILITY DISORDERS” (Allergan, Inc., priority 2006, published 2008).
smiles,measurement,value
CN(C)[C@@H](CCOc1cccc2ccccc12)c1ccccc1 [Dapoxetine],time to maximum serum concentration,about 1 hour
